One series concerns the target T1, MMP-7 (Homo sapiens, UniProt P09237).
T1 construct: made in house; host or cells: E. coli (clone a gift of Dr. Steven Shapiro, Washington University)
T1 sequence (P09237 95-267): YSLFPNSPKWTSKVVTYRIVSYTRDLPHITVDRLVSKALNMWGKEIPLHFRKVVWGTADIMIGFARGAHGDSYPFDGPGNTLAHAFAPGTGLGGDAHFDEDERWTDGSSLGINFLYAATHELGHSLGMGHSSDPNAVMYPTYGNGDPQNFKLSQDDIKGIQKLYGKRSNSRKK
As to the kind of experiment: In vitro metalloprotease inhibition, pH 7.5 with 0.02% 2-mercaptoethanol. As to conditions: selectively inhibit one or more of MMP-2, MMP-9 and MMP-13. In kind it is biochemical. The method, then: The compounds prepared in the manner described in the Examples above were assayed for activity by an in vitro assay. […] Briefly, 4-aminophenylmercuric acetate (APMA) or trypsin-activated MMPs were incubated with various concentrations of the inhibitor compound at room temperature for 5 minutes.
MMP-1 expressed in transfected HT-1080 cells was provided by Dr. Harold Welgus of Washington University, St. Louis, Mo. The enzyme was also activated using APMA and was then purified over a hydroxamic acid column. Dr. Welgus also provided transfected HT-1080 cells that expressed MMP-9. Transfected cells that expressed MMP-2 were provided by Dr. Gregory Goldberg, also of Washington University. Studies with MMP-7 were carried out at pH 7.5 in the presence of 0.02% 2-mercaptoethanol using conditions otherwise similar to those used for the other enzymes. […]
In the absence of inhibitor activity, a fluorogenic peptide was cleaved at the gly-leu peptide bond, separating the highly fluorogenic peptide from a 2,4-dinitrophenyl quencher, resulting in an increase of fluorescence intensity (excitation at 328 nm/emission at 415 nm). Inhibition was measured as a reduction in fluorescent intensity as a function of inhibitor concentration, using a Perkin Elmer L550 plate reader. The IC50 values were calculated from those values. […]

The target in the next series is T2, MMP-13 (Homo sapiens, UniProt P45452).
T2 construct: made in house; host or cells: baculovirus / insect cells
As to the kind of experiment: biochemical. As to conditions: recombinant human MMP-13, MCA peptide substrate 4 μM, pH 7.5, room temperature; read-out: MMP-13 IC50. Put shortly:
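APMA- or trypsin-activated enzymes were preincubated with inhibitor for 5 min at room temperature, then the fluorogenic substrate MCA-Pro-Leu-Gly-Leu-Dpa-Ala-Arg-NH2 was added to a final 4 μM.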

The target of a further series is T3, MMP-1 (Homo sapiens, UniProt P03956).
T3 construct: made in house; host or cells: transfected HT-1080 cells (provided by Dr. Harold Welgus, Washington University)
T3 sequence (P03956 100-469): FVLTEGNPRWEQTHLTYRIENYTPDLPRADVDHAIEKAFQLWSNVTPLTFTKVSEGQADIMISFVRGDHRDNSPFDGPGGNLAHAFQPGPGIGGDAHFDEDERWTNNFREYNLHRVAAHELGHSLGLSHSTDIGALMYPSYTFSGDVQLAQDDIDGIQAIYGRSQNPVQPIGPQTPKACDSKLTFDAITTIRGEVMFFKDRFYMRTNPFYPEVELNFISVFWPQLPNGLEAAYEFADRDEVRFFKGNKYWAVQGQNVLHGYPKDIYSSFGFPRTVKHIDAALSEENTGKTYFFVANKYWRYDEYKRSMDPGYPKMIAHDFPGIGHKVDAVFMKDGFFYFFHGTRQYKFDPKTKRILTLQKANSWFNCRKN
As to the kind of experiment: biochemical. As to conditions: recombinant human MMP-1, MCA peptide substrate 4 μM, pH 7.5, room temperature; read-out: MMP-1 IC50. In outline:
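Substrate MCA-PLGL-Dpa-AR-NH2 at 4 μM final; pH 7.5 Tris/NaCl/CaCl2 buffer with 0.05% polyethyleneglycol lauryl ether, 1% DMSO, room temperature. MMP-1 was expressed in transfected HT-1080 cells and APMA-activated.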

For a further series, the target named is T4, MMP-2 (Homo sapiens, UniProt P08253).
T4 construct: made in house; provided by Dr. Gregory Goldberg, Washington University
T4 sequence (P08253 110-660): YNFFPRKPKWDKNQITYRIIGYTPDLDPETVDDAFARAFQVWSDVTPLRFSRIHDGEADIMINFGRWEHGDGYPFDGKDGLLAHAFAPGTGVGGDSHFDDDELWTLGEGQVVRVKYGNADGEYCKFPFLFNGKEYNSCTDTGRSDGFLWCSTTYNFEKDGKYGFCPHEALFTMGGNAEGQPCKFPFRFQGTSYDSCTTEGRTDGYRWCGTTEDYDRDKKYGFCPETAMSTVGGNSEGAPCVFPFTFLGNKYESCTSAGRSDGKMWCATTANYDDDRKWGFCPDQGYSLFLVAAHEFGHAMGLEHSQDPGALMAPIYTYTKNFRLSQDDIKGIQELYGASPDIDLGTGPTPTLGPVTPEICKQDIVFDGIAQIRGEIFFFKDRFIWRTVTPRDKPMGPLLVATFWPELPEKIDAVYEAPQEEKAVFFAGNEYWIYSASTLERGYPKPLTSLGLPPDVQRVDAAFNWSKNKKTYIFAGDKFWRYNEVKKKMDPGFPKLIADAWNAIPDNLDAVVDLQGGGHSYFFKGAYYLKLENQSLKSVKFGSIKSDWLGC
As to the kind of experiment: biochemical. The conditions noted are these: recombinant human MMP-2, MCA peptide substrate 4 μM, pH 7.5, room temperature; read-out: MMP-2 IC50. Put shortly: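 APMA- or trypsin-activated human MMPs (MMP-1 from transfected HT-1080 cells, MMP-2 from transfected cells) preincubated with inhibitor in 1% DMSO at room temperature, then 4 μM MCA-Pro-Leu-Gly-Leu-Dpa-Ala-Arg-NH2 added in Tris/NaCl/CaCl2 buffer pH 7.5. IC50 from fluorescence reduction versus inhibitor concentration.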

The test system of series [1] is advanced, rapidly progressive, treatment-refractory solid tumor cancers. The conditions noted are these: cited from earlier work.

The IC50 is the concentration needed to halve the response being measured.

As for `Cn1cnc(S(=O)(=O)N2CCN(c3ccc(S(=O)(=O)C4(C(=O)NO)CCOCC4)cc3)CC2)c1` [Example 684], at MMP-7, the “inhibition of MMP-7 compared with MMP-2, MMP-9 and MMP-13 (selectivity)” value is recorded as “substantially less inhibition”. The half-maximal inhibitory concentration (IC50) at MMP-13 was 0.06 µM; at MMP-1, > 10 µM; on MMP-2 it was 1.45 µM.
Turning to `N#Cc1cccc(S(=O)(=O)N2CCN(c3ccc(S(=O)(=O)C4(C(=O)NO)CCOCC4)cc3)CC2)c1` [Example 672], the “inhibition of MMP-7 compared with MMP-2, MMP-9 and MMP-13 (selectivity)” value against MMP-7 is reported as “substantially less inhibition”. For the same compound, the IC50 is 0.0067 µM on MMP-13, > 10 µM on MMP-1 and 0.06 µM on MMP-2.
`CNC(=O)[C@@H](NC(=O)[C@H](CC(C)C)[C@H](O)C(=O)NO)C(C)(C)C` [marimastat, Marimastat]: the “most common drug-related toxicity” value in series [1] (clinical trials in patients) is “musculoskeletal pain and stiffness”. The “cancer-specific antigens used as surrogate markers for biological activity” value in series [1] (patients with colorectal, pancreatic, ovarian, prostate cancers) was “dose-related reduction in the rise of cancer-specific antigens”.
For `O=C(NO)C1(S(=O)(=O)c2ccc(N3CCN(S(=O)(=O)c4ccccc4OC(F)(F)F)CC3)cc2)CCOCC1` [Example 673], the values for the IC50 on MMP-13, on MMP-1 and on MMP-2 were 0.0148 µM, > 10 µM and 0.455 µM, respectively.
As for `CCCCOC1CCN(c2ccc(S(=O)(=O)C3(C(=O)NO)CCNCC3)cc2)CC1` [Example 443], the IC50 is 0.09 µM on MMP-13, > 10 µM on MMP-1 and 2.2 µM at MMP-2.
For the compound `O=C(NO)C1(S(=O)(=O)c2ccc(N3CCN(C4CCCC4)CC3)cc2)CCOCC1` [Example 488], the IC50 is 0.14 µM on MMP-13, > 10 µM on MMP-1 and 0.37 µM on MMP-2.
For the compound `COCCNCC(=O)N1CCC(C(=O)NO)(S(=O)(=O)c2ccc(Oc3ccc(C(F)(F)F)cc3)cc2)CC1` [Example 332], the IC50 was 0.0021 µM on MMP-13, > 10 µM on MMP-1 and 0.0004 µM on MMP-2.
In the same order, the values of `O=C(NO)C1(S(=O)(=O)c2ccc(N3CC=C(c4ccccc4)CC3)cc2)CCOCC1` [Example 587] are 0.0018 µM, > 10 µM and 0.001 µM.
For the compound `CC1CC(C)CN(C(=O)C2CCN(c3ccc(S(=O)(=O)C4(C(=O)NO)CCN(C(=O)CN(C)C)CC4)cc3)CC2)C1` (stereo not shown) [Example 294], the figures for the IC50 at MMP-13, on MMP-1 and on MMP-2 were 0.0591 µM, > 1 µM and > 10 µM, respectively.
The corresponding values for `O=C(NO)C1(S(=O)(=O)c2ccc(N3CCC(Oc4ccccc4[N+](=O)[O-])CC3)cc2)CCOCC1` [Example 552] are 0.0128 µM, > 10 µM and 0.14 µM.
Turning to `O=C(NO)C1(S(=O)(=O)c2ccc(N3CCC(c4ccccc4C(F)(F)F)CC3)cc2)CCOCC1` [Example 207], the values for the IC50 at MMP-13, on MMP-1 and on MMP-2 were 0.0288 µM, > 10 µM and 0.9 µM, respectively.

The record behind these values is patent publication US6750228B1, “Aromatic sulfone hydroxamic acid metalloprotease inhibitor” (priority 1997, dated 2004).
